In publication PMC9516332 (Frontiers in Oncology, 2022):

How the values were obtained:
Test in all cases: Kinase panel profiling at 1 µmol/L (MSA or IMAP), percentage inhibition
Format in all cases: biochemical
[1] = molecular target: panel of 255 wild-type kinases (Homo sapiens, UniProt Q15418); conditions: kinase RSK1; 1 µmol/L single concentration; read-out: %-inhibition at 1 µmol/L, RSK1
[2] = molecular target: panel of 255 wild-type kinases (Homo sapiens, UniProt P29597); conditions: kinase TYK2; 1 µmol/L single concentration; read-out: %-inhibition at 1 µmol/L, TYK2
[3] = molecular target: panel of 255 wild-type kinases (Homo sapiens, UniProt Q9H2X6); conditions: kinase HIPK2; 1 µmol/L single concentration; read-out: %-inhibition at 1 µmol/L, HIPK2
[4] = molecular target: panel of 255 wild-type kinases (Homo sapiens, UniProt P10721); conditions: kinase KIT; 1 µmol/L single concentration; read-out: %-inhibition at 1 µmol/L, KIT
[5] = molecular target: T1, panel of 255 wild-type kinases (Homo sapiens, UniProt Q05513); conditions: kinase PKCζ; 1 µmol/L single concentration; read-out: %-inhibition at 1 µmol/L, PKCζ
T1 sequence (Q05513 1-592): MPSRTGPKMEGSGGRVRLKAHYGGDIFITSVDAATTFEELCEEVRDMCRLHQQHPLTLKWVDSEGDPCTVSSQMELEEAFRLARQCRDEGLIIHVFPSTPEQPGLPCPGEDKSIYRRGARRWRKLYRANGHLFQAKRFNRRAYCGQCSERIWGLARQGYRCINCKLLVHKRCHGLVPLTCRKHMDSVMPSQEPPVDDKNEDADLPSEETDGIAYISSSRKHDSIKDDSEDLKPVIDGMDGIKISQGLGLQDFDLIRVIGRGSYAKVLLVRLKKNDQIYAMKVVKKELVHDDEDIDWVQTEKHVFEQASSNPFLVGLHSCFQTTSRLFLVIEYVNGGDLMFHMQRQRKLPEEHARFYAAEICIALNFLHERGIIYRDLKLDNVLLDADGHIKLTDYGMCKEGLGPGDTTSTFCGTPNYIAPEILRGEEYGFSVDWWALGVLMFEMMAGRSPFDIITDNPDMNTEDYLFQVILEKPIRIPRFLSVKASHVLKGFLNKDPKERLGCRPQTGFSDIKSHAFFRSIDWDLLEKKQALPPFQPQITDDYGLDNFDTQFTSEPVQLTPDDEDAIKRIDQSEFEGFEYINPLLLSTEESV

[6] = molecular target: panel of 255 wild-type kinases (Homo sapiens, UniProt P07947); conditions: kinase YES; 1 µmol/L single concentration; read-out: %-inhibition at 1 µmol/L, YES
[7] = molecular target: T2, panel of 255 wild-type kinases (Homo sapiens, UniProt Q9H093); conditions: NuaK2; 1 µmol/L single concentration; read-out: %-inhibition, NuaK2
T2 sequence (Q9H093 1-628): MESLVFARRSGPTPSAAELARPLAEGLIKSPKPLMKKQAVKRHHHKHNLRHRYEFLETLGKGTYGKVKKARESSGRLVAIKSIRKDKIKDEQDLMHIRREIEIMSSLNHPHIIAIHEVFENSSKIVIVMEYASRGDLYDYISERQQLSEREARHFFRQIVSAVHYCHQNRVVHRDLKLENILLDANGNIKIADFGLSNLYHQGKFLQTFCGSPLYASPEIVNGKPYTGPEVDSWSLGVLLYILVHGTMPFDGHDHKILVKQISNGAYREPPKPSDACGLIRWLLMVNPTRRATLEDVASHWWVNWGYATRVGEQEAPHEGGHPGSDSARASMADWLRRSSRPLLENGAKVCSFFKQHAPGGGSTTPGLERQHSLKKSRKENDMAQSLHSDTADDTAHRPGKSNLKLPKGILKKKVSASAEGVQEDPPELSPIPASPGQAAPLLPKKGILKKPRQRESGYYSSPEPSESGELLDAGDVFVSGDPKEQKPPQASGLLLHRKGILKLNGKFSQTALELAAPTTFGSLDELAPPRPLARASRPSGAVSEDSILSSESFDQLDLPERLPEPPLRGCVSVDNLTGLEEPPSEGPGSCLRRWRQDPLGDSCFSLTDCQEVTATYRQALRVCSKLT

[8] = molecular target: panel of 255 wild-type kinases (Homo sapiens, UniProt P04626); conditions: kinase HER2; 1 µmol/L single concentration; read-out: %-inhibition at 1 µmol/L, HER2
[9] = molecular target: panel of 255 wild-type kinases (Homo sapiens, UniProt P22612); conditions: kinase PKACγ; 1 µmol/L single concentration; read-out: %-inhibition at 1 µmol/L, PKACγ
[10] = molecular target: panel of 255 wild-type kinases (Homo sapiens, UniProt Q16288); conditions: kinase TRKC; 1 µmol/L single concentration; read-out: %-inhibition at 1 µmol/L, TRKC
[11] = molecular target: panel of 255 wild-type kinases (Homo sapiens, UniProt P07949); conditions: kinase RET; 1 µmol/L single concentration; read-out: %-inhibition at 1 µmol/L, RET
[12] = molecular target: panel of 255 wild-type kinases (Homo sapiens, UniProt P19525); conditions: kinase PKR; 1 µmol/L single concentration; read-out: %-inhibition at 1 µmol/L, PKR

Row | inhibition at 1 µM [1] | inhibition at 1 µM [2] | inhibition at 1 µM [3] | inhibition at 1 µM [4] | inhibition at 1 µM [5] | inhibition at 1 µM [6] | inhibition at 1 µM [7] | inhibition at 1 µM [8] | inhibition at 1 µM [9] | inhibition at 1 µM [10] | inhibition at 1 µM [11] | inhibition at 1 µM [12] | SMILES
1 | -0.755% | 2.8% | 0.116% | -2.43% | 16% | -2.44% | 3.49% | 19% | -4% | 2% | 8% | 2.64% | C[C@H](Nc1ncnc2nc[nH]c12)c1cc2cccc(Cl)c2c(=O)n1-c1ccccc1 [duvelisib]
2 | 26% | 91% | 11% | 83% | -0.213% | 95% | 75% | 20% | 10% | 98% | 99% | 8% | CO[C@]1(C(=O)N[C@@H](C)c2ccc(-n3cc(F)cn3)nc2)CC[C@H](c2nc(C)cc(Nc3cc(C)[nH]n3)n2)CC1 [pralsetinib]
3 | -4.66% | 4.71% | 6% | -1.27% | -1.11% | 3.64% | 6.61% | 101% | -0.548% | 2.53% | 35% | 3.37% | Cc1cc(Nc2ncnc3ccc(NC4=NC(C)(C)CO4)cc23)ccc1Oc1ccn2ncnc2c1 [tucatinib]
4 | -5.55% | -4% | -4.27% | -0.242% | 10% | 2.16% | 0.626% | 1.43% | -3% | -0.843% | -6% | -11% | Cn1cnc2c(F)c(Nc3ccc(Br)cc3F)c(C(=O)NOCCO)cc21 [binimetinib]
5 | -0.527% | -4% | 3.33% | 5% | 14% | -4% | 6% | 19% | -7.38% | 2.52% | 1.62% | -1% | Cc1nc(NC(=O)N2CCC[C@H]2C(N)=O)sc1-c1ccnc(C(C)(C)C(F)(F)F)c1 [alpelisib]

Row | SMILES | inhibition at 1 µM [1] | inhibition at 1 µM [2] | inhibition at 1 µM [3] | inhibition at 1 µM [4] | inhibition at 1 µM [5] | inhibition at 1 µM [6] | inhibition at 1 µM [7] | inhibition at 1 µM [8] | inhibition at 1 µM [9] | inhibition at 1 µM [10] | inhibition at 1 µM [11] | inhibition at 1 µM [12]
6 | FC(F)(F)c1ccc(CNc2ccc(Cc3c[nH]c4ncc(Cl)cc34)cn2)cn1 [pexidartinib] | 7.43% | 19% | 4.6% | 87% | 13% | 16% | 5% | 6% | 3% | 81% | 88% | -10%
7 | Cn1cc(-c2cc3c(N4CCN(c5ncc([C@@](C)(N)c6ccc(F)cc6)cn5)CC4)ncnn3c2)cn1 [avapritinib] | -7% | 16% | 4% | 100% | -0.226% | 83% | 68% | 12% | 4.43% | 57% | 96% | 9%
